From EP4029501A1, “COMBINATION OF POLYAROMATIC UREA DERIVATIVES AND GLUCOCORTICOID OR HDAC INHIBITOR FOR THE TREATMENT OF DISEASES OR CONDITIONS ASSOCIATED WITH MUSCLE CELLS AND/OR SATELLITE CELLS” (Anagenesis Biotechnologies, priority 2021, dated 2022)
Where a name gives a salt, the structure may show the parent alone.

Test system: muscle progenitors derived from DMD hiPSC
Assay: Myotube assay: total myotube area per well (alpha-actinin staining)
Format: cell-based, human
Conditions: Homo sapiens, Myotube, 72 h, DMD or WT cell source not given; for Emax: efficacy, MA = normalized Myotube Area, 3 days incubation; for EC50: myogenic activity, half-maximal generation of myotubes, 10 points dose-response 1.5 nM to 30 µM, 3 days
Outline: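 DMD hiPSC-derived muscle progenitors (NCRM-1 background) plated at 3500 cells/well in K5 medium with 5 µM Y-27632, then exposed to compound at 1.5 nM–30 µM for 3 days at 37°C. Cells fixed on day 7, alpha-actinin-immunostained and total myotube area per well quantified; duplicates averaged, EC50 and normalized myotube area derived.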

Row | Compound | EC50 [µM] | Emax [%]
1 | CNC(=O)c1cc(Oc2ccc(NC(=O)Nc3cc(C(C)(C)C)nn3-c3ccccc3)c(SC)c2)ccn1 [(br), 4-(4-(3-(3-(tert-butyl)-1-phenyl-1H-pyrazol-5-yl)ureido)-3-(methylthio)phenoxy)-N-methylpicolinamide] | ≥ 5 | ≥ 75
2 | CSc1cc(Oc2ccnc3[nH]c(=O)cnc23)ccc1NC(=O)Nc1nc(C(C)(C)C)cs1 [(ca), 1-(4-(tert-butyl)thiazol-2-yl)-3-(2-(methylthio)-4-((3-oxo-3,4-dihydropyrido[2,3-b]pyrazin-8-yl)oxy)phenyl)urea] | ≥ 5 | ≥ 75
3 | CSc1cc(Oc2ccnc3c2CCCN3)ccc1NC(=O)Nc1cc(C(C)(C)C)nn1-c1ccccc1 [(be), 1-(3-(tert-butyl)-1-phenyl-1H-pyrazol-5-yl)-3-(2-(methylthio)-4-((5,6,7,8-tetrahydro-1,8-naphthyridin-4-yl)oxy)phenyl)urea] | 1 to 5 | ≥ 75
4 | O=C(Nc1ccc(Oc2ccnc3[nH]c(=O)cnc23)cc1F)Nc1c(-c2ccccc2)nn2c1CCC2 [(y), 1-(2-fluoro-4-((3-oxo-3,4-dihydropyrido[2,3-b]pyrazin-8-yl)oxy)phenyl)-3-(2-phenyl-5,6-dihydro-4H-pyrrolo[1,2-b]pyrazol-3-yl)urea] | ≥ 5 | 25 to 50
5 | CSc1cc(Oc2ccnc(C(=O)Nc3ccccc3)c2)ccc1NC(=O)Nc1cc(C(C)(C)C)nn1-c1ccccc1 [(co), 4-(4-(3-(3-(tert-butyl)-1-phenyl-1H-pyrazol-5-yl)ureido)-3-(methylthio)phenoxy)-N-phenylpicolinamide] | ≥ 5 | 25 to 50
6 | CC(C)(C)c1cc(NC(=O)Nc2ccc(Oc3ccnc4[nH]c(=O)cnc34)cc2F)n(Cc2ccccc2)n1 [(j), 1-(1-benzyl-3-(tert-butyl)-1 H-pyrazol-5-yl)-3-(2-fluoro-4-((3-oxo-3,4-dihydropyrido[2,3-b]pyrazin-8-yl)oxy)phenyl)urea] | 1 to 5 | 50 to 75
7 | CSc1cc(Oc2ccnc3c2ncc(=O)n3C)ccc1NC(=O)Nc1cc(C(C)(C)C)nn1-c1ccccc1 [(au), 1-(3-(tert-butyl)-1-phenyl-1H-pyrazol-5-yl)-3-(4-((4-methyl-3-oxo-3,4-dihydropyrido[2,3-b]pyrazin-8-yl)oxy)-2-(methylthio)phenyl)urea] | ≥ 5 | ≥ 75
8 | CSc1cc(Oc2cccc3c2CCC(=O)N3)ccc1NC(=O)Nc1cc(C(C)(C)C)nn1-c1ccccc1 [(ci), 1-(3-(tert-butyl)-1-phenyl-1H-pyrazol-5-yl)-3-(2-(methylthio)-4-((2-oxo-1,2,3,4-tetrahydroquinolin-5-yl)oxy)phenyl)urea] | ≥ 5 | 25 to 50
9 | CC(C)c1cc(Oc2ccnc3[nH]c(=O)cnc23)ccc1NC(=O)Nc1cc(C(C)(C)C)nn1-c1ccccc1 [(bk), 1-(3-(tert-butyl)-1-phenyl-1H-pyrazol-5-yl)-3-(2-isopropyl-4-((3-oxo-3,4-dihydropyrido[2,3-b]pyrazin-8-yl)oxy)phenyl)urea] | ≥ 5 | ≥ 75
10 | CSc1cc(Oc2ccnc(N)c2)ccc1NC(=O)Nc1cc(C(C)(C)C)nn1-c1ccccc1 [(bj), 1-(4-((2-aminopyridin-4-yl)oxy)-2-(methylthio)phenyl)-3-(3-(tert-butyl)-1-phenyl-1H-pyrazol-5-yl)urea hydrochloride] | ≥ 5 | ≥ 75
11 | CSc1cc(Oc2ccnc3nccnc23)ccc1NC(=O)Nc1cc(C(C)(C)C)nn1-c1ccccc1 [(bs), 1-(3-(tert-butyl)-1-phenyl-1 H-pyrazol-5-yl)-3-(2-(methylthio)-4-(pyrido[2,3-b]pyrazin-8-yloxy)phenyl)urea] | ≥ 5 | ≥ 75
12 | CSc1cc(Oc2ccnc3[nH]c(=O)cnc23)ccc1NC(=O)Nc1cc(C(C)(C)C)nn1C1CCCCC1 [(bn), 1-(3-(tert-butyl)-1-cyclohexyl-1H-pyrazol-5-yl)-3-(2-(methylthio)-4-((3-oxo-3,4-dihydropyrido[2,3-b]pyrazin-8-yl)oxy)phenyl)urea] | ≥ 5 | 50 to 75
13 | Cc1cc(Oc2ccnc3[nH]c(=O)cnc23)ccc1NC(=O)Nc1cc(C(C)(C)C)nn1-c1ccccc1 [(al), 1-(3-(tert-butyl)-1-phenyl-1 H-pyrazol-5-yl)-3-(2-methyl-4-((3-oxo-3,4-dihydropyrido[2,3-b]pyrazin-8-yl)oxy)phenyl)urea] | ≥ 5 | ≥ 75

Second part, led by results:

Row | EC50 [µM] | Compound | Emax [%]
14 | < 0.5 | CSc1cc(Oc2ccnc3[nH]c(=O)cnc23)ccc1NC(=O)Nc1cc(C(C)(C)C)nn1-c1ccc(OCCCN(C)C)cc1 [(cr), 1-(3-(tert-butyl)-1-(4-(3-(dimethylamino)propoxy)phenyl)-1H-pyrazol-5-yl)-3-(2-(methylthio)-4-((3-oxo-3,4-dihydropyrido[2,3-b]pyrazin-8-yl)oxy)phenyl)urea] | ≥ 75
15 | 0.5 to 1 | CSc1cc(Oc2ccnc(NCCN(C)C)c2)ccc1NC(=O)Nc1cc(C(C)(C)C)nn1-c1ccccc1 [(ck), 1-(3-(tert-butyl)-1-phenyl-1 H-pyrazol-5-yl)-3-(4-((2-((2-(dimethylamino)ethyl)amino)pyridin-4-yl)oxy)-2-(methylthio)phenyl)urea hydrochloride] | ≥ 75
16 | < 0.5 | CSc1cc(Oc2ccnc3c2CCC(=O)N3)ccc1NC(=O)Nc1ncc(C(C)(C)C)s1 [(cb), 1-(5-(tert-butyl)thiazol-2-yl)-3-(2-(methylthio)-4-((7-oxo-5,6,7,8-tetrahydro-1,8-naphthyridin-4-yl)oxy)phenyl)urea] | ≥ 75
17 | 0.5 to 1 | CSc1cc(Oc2ccnc3[nH]c(=O)cnc23)ccc1NC(=O)Nc1cc(C(C)(C)C)no1 [(bx), 1-(3-(tert-butyl)isoxazol-5-yl)-3-(2-(methylthio)-4-((3-oxo-3,4-dihydropyrido[2,3-b]pyrazin-8-yl)oxy)phenyl)urea] | ≥ 75
18 | < 0.5 | CSc1cc(Oc2ccnc3[nH]c(=O)cnc23)ccc1NC(=O)Nc1cc(C(C)(C)C)nn1-c1ccc2ncccc2c1 [(bm), 1-(3-(tert-butyl)-1-(quinolin-6-yl)-1 H-pyrazol-5-yl)-3-(2-(methylthio)-4-((3-oxo-3,4-dihydropyrido[2,3-b]pyrazin-8-yl)oxy)phenyl)urea] | ≥ 75
19 | 0.5 to 1 | CC(C)(C)c1cc(NC(=O)Nc2ccc(Oc3ccnc4[nH]c(=O)cnc34)cc2F)n(-c2cccnc2)n1 [(l), 1-(3-(tert-butyl)-1-(pyridin-3-yl)-1 H-pyrazol-5-yl)-3-(2-fluoro-4-((3-oxo-3,4-dihydropyrido[2,3-b]pyrazin-8-yl)oxy)phenyl)urea] | 50 to 75
20 | 0.5 to 1 | CSc1cc(Oc2ccnc3c2OCCN3)ccc1NC(=O)Nc1cc(C(C)(C)C)nn1-c1ccccc1 [(cy), 1-(3-(tert-butyl)-1-phenyl-1H-pyrazol-5-yl)-3-(4-((3,4-dihydro-2H-pyrido[3,2-b][1,4]oxazin-8-yl)oxy)-2-(methylthio)phenyl)urea] | ≥ 75
21 | < 0.5 | CCOC(=O)Nc1cc(Oc2ccc(NC(=O)Nc3cc(C(C)(C)C)no3)c3ccccc23)ccn1 [(db), ethyl (4-((4-(3-(3-(tert-butyl)isoxazol-5-yl)ureido)naphthalen-1-yl)oxy)pyridin-2-yl)carbamate] | ≥ 75
22 | < 0.5 | CSc1cc(Oc2ccnc3[nH]c(=O)cnc23)ccc1NC(=O)Nc1cc(C(C)(C)C)nn1-c1ccc(C#N)cc1 [(cc), 1-(3-(tert-butyl)-1-(4-cyanophenyl)-1H-pyrazol-5-yl)-3-(2-(methylthio)-4-((3-oxo-3,4-dihydropyrido[2,3-b]pyrazin-8-yl)oxy)phenyl)urea] | ≥ 75
23 | 0.5 to 1 | Cc1cc(NC(=O)Nc2ccc(Oc3ccnc4[nH]c(=O)cnc34)cc2F)n(-c2ccccc2)n1 [(a), 1-(2-fluoro-4-((3-oxo-3,4-dihydropyrido[2,3-b]pyrazin-8-yl)oxy)phenyl)-3-(3-methyl-1-phenyl-1 H-pyrazol-5-yl)urea] | 25 to 50
24 | 0.5 to 1 | CC(C)(C)c1cc(NC(=O)Nc2ccc(Oc3ccnc4[nH]c(=O)cnc34)cc2)n(-c2ccccc2)n1 [(s), 1-(3-(tert-butyl)-1-phenyl-1 H-pyrazol-5-yl)-3-(4-((3-oxo-3,4-dihydropyrido[2,3-b]pyrazin-8-yl)oxy)phenyl)urea] | 50 to 75
25 | 0.5 to 1 | CNC(=O)c1cncc(Oc2ccc(NC(=O)Nc3cc(C(C)(C)C)nn3-c3ccccc3)c(SC)c2)c1 [(ai), 5-(4-(3-(3-(tert-butyl)-1-phenyl-1H-pyrazol-5-yl)ureido)-3-(methylthio)phenoxy)-N-methylnicotinamide] | 
26 | 0.5 to 1 | CSc1cc(Oc2ccnc3c2CCC(=O)N3)ccc1NC(=O)Nc1cc(C(C)(C)C)no1 [(cz), 1-(3-(tert-butyl)isoxazol-5-yl)-3-(2-(methylthio)-4-((7-oxo-5,6,7,8-tetrahydro-1,8-naphthyridin-4-yl)oxy)phenyl)urea] | ≥ 75
27 | < 0.5 | CSc1cc(Oc2ccnc3c2OCC(=O)N3)ccc1NC(=O)Nc1cc(C(C)(C)C)nn1-c1ccccc1 [(ct), 1-(3-(tert-butyl)-1-phenyl-1H-pyrazol-5-yl)-3-(2-(methylthio)-4-((3-oxo-3,4-dihydro-2H-pyrido[3,2-b][1,4]oxazin-8-yl)oxy)phenyl)urea] | ≥ 75
28 | 0.5 to 1 | CSc1cc(Oc2ccnc3[nH]c(=O)cnc23)ccc1NC(=O)Nc1cc(C(C)(C)C)nn1-c1ccc(OCCN2CCOCC2)cc1 [(cf), 1-(3-(tert-butyl)-1-(4-(2-morpholinoethoxy)phenyl)-1 H-pyrazol-5-yl)-3-(2-(methylthio)-4-((3-oxo-3,4-dihydropyrido[2,3-b]pyrazin-8-yl)oxy)phenyl)urea] | ≥ 75
29 | < 0.5 | CCOC(=O)Nc1cc(Oc2ccc(NC(=O)Nc3cc(C(C)(C)C)on3)c(SC)c2)ccn1 [(di), ethyl (4-(4-(3-(5-(tert-butyl)isoxazol-3-yl)ureido)-3-(methylthio)phenoxy)pyridin-2-yl)carbamate] | ≥ 75
